# Paper PMC9232501, “Results of the phase I CCTG IND.231 trial of CX-5461 in patients with advanced solid tumors enriched for DNA-repair deficiencies” (Nature Communications, 2022)
# “And” between values parts separate entries of the source, which are not always exact repeats. Equal entries are not always repeated.
# Assays:
# [1] = system: BRCA2 and BRCA1-deficient tumor models; conditions: cited from earlier work
# HCT116 cells [2] = test: HCT116 cytotoxicity (WST-1 assay) with and without UVA radiation; format: cell-based, Human; conditions: for WST-1 raw signal (Figure 5c): replicates
# Description: (§1) Fig. 5 Comparison of G4 ligand photosensitization. […] Vertical axis, fractional survival, horizontal axis log10 drug concentration (M) (f) Representative images of CPD immunofluorescent staining under UV and drug treatment conditions for U2OS cells, quantified from biological duplicates in (g) (h) Scale bar = 100um. U2OS cells were treated with drug or vehicle control, then immediately irradiated with UVA 125 mJ/cm^2; and fixed 1 h later for immunofluorescence staining with CPD antibody. g Distribution of mean intensity of CPD level per cell (total n = in labels), with two biological repeats per condition. Vertical axis, mean CPD intensity per cell, horizontal axis, conditions (h) WT or KO XPA HAP1 cells assayed for cytotoxicity. Vertical axis, fractional survival (WST-1 assay). The horizontal axis, log10 drug concentration (M). Error bars = standard deviation of the mean. Three biological repeats per condition.
# (§2) Human epidermal keratinocytes (HEKa) cells were sourced from Thermo Fisher Scientific, and were grown in EpiLife™ Medium with HKGS. HAP WT and XPA knockout cell lines (Horizon Discovery) were cultured in IMDM, 10% FCS. Human HCT116 cells, U2OS cells (ATCC) were grown in McCoy’s 5 A medium with 10% FBS and L-glutamine. All cell lines are mycoplasma free and have been authenticated by STR or SNP profiling. CX-5461 was provided by Senhwa Biosciences, Inc. PDS is from Sigma-Aldrich, BRACO-19 from Alfa Chemistry, PhENDC3 is from Sigma-Aldrich, γ -H2AX antibody from Abcam (1:1000 for IF) and CPD antibody (1:1500) from Cosmo Bio Ltd. (Catalog number: CAC-NM-DAD-001). The WST-1 assay was performed as previously described, γ H2AX foci staining was performed as previously described. Immunofluorescence staining of CPD was performed according to the protocol from the manufacturer (Cosmo Bio Ltd).
# U2OS cells = test: CPD (cyclobutane pyrimidine dimer) immunofluorescence after UVA 125 mJ/cm^2; format: cell-based, Human; conditions: 1 h compound exposure
# Description: as §1
# Human epidermal keratinocytes (HEKa) cells were sourced from Thermo Fisher Scientific, and were grown in EpiLife™ Medium with HKGS. HAP WT and XPA knockout cell lines (Horizon Discovery) were cultured in IMDM, 10% FCS. Human HCT116 cells, U2OS cells (ATCC) were grown in McCoy’s 5 A medium with 10% FBS and L-glutamine. All cell lines are mycoplasma free and have been authenticated by STR or SNP profiling. […]
# HCT116 cells [3] = test: ROS measurement with H2DCFDA before/after UVA 125 mJ/cm^2; format: cell-based, Human; conditions: CX-5461 0.1 μM or PDS 10 μM for 1 h
# Description: ROS measurement with H2DCFDA: HCT116 cells were treated with vehicle, CX-5461 0.1 μM or PDS 10 μM for 1 h, then were added with H2DCFDA for 45 min before initial fluorescence measurement. Cells were then irradiated with UVA 125 mJ/cm^2, and immediately sent for a second fluorescent measurement. The ratio of the second and the first fluorescent measurement was calculated as the level of ROS induced by UVA. Assays were performed in the 1-hour time frame within which UV damage manifests, in contrast to G4 ligand-induced damage which takes 3–4 h to be measurable.
# (§3) Supplementary Figures and Tables
# (§4) Supplementary Figure 1. UVA radiation increased double-stranded DNA breaks and ROS.
# (§5) Representative pictures of g -H2AX immunofluorescent staining with and without UVA radiation, for […]
# condition, quantified in (b) Quantile and mean intensity of g-H2AX level per cell, vertical axis. UV and drug factor conditions, horizontal axis. Experiments were repeated two times (biological duplicates) and similar results were obtained. Number of cells as in Figure 5 g (c) The ratio of ROS level measured after UVA irradiation versus before UVA irradiation was calculated. Biological triplicates. The horizontal bar = median. ***P<0.0001, Welch’s t-test; n=8
# (1 picture or pasted object on this page, not shown here)
# [4] = system: γ-H2AX (double-stranded DNA breaks); test: γ-H2AX immunofluorescent staining with and without UVA radiation; format: cell-based; conditions: CX5461 10^-8M, 5x10-8M; PDS 20 x 10^-6M
# Description: as §2, §3, §4, §5
# condition, quantified in (b) Quantile and mean intensity of g-H2AX level per cell, vertical axis. UV and drug factor conditions, horizontal axis. […] Number of cells as in Figure 5 g (c) The ratio of ROS level measured after UVA irradiation versus before UVA irradiation was calculated. […]
smiles,measurement,setting,value
"NCCOc1cc(C(=O)Nc2cc(OCCN)c3ccccc3n2)nc(C(=O)Nc2cc(OCCN)c3ccccc3n2)c1 [PDS, pyridostatin]",synthetic lethality with loss of HR repair,[1],synthetic lethal
same,potentiation of UVA-induced cytotoxicity,HCT116 cells [2]; UV 5 mJ/cm^2 and 125 mJ/cm^2,not
same,WST-1 raw signal (Figure 5c),"HCT116 cells [2]; conc 1.56e-6, 5mJ/cm2 UV",3.2786 and 3.1337
same,WST-1 raw signal (Figure 5c),"HCT116 cells [2]; conc 1.56e-6, 125 mJ/cm2 UV",2.9405 and 3.1793
same,WST-1 raw signal (Figure 5c),"HCT116 cells [2]; conc 1.56e-6, no UV",3.373 and 3.3554
same,WST-1 raw signal (Figure 5c),"HCT116 cells [2]; conc 3.13e-6, 5mJ/cm2 UV",2.8932 and 3.2752
same,WST-1 raw signal (Figure 5c),"HCT116 cells [2]; conc 3.13e-6, 125 mJ/cm2 UV",3.2783 and 2.5154
same,WST-1 raw signal (Figure 5c),"HCT116 cells [2]; conc 3.13e-6, no UV",3.1639 and 3.0204
same,WST-1 raw signal (Figure 5c),"HCT116 cells [2]; conc 6.25e-6, 5mJ/cm2 UV",3.1968 and 2.1952
same,WST-1 raw signal (Figure 5c),"HCT116 cells [2]; conc 6.25e-6, 125 mJ/cm2 UV",2.1994 and 1.9427
same,WST-1 raw signal (Figure 5c),"HCT116 cells [2]; conc 6.25e-6, no UV",2.8791 and 2.2497
same,WST-1 raw signal (Figure 5c),"HCT116 cells [2]; conc 1.25e-5, 5mJ/cm2 UV",0.8793 and 1.0754
same,WST-1 raw signal (Figure 5c),"HCT116 cells [2]; conc 1.25e-5, 125 mJ/cm2 UV",1.8196 and 1.0192
same,WST-1 raw signal (Figure 5c),"HCT116 cells [2]; conc 1.25e-5, no UV",1.2465 and 0.8301
same,WST-1 raw signal (Figure 5c),"HCT116 cells [2]; conc 2.5e-5, 5mJ/cm2 UV",0.2188 and 0.2466
same,WST-1 raw signal (Figure 5c),"HCT116 cells [2]; conc 2.5e-5, 125 mJ/cm2 UV",0.4428 and 0.3571
same,WST-1 raw signal (Figure 5c),"HCT116 cells [2]; conc 2.5e-5, no UV",0.23 and 0.2464
same,WST-1 raw signal (Figure 5c),"HCT116 cells [2]; conc 5e-5, 5mJ/cm2 UV",0.1582 and 0.148
same,WST-1 raw signal (Figure 5c),"HCT116 cells [2]; conc 5e-5, 125 mJ/cm2 UV",0.1729 and 0.1634
same,WST-1 raw signal (Figure 5c),"HCT116 cells [2]; conc 5e-5, no UV",0.1562 and 0.1551
same,WST-1 raw signal (Figure 5c),"HCT116 cells [2]; conc 1.95E-07, 5mJ/cm2 UV",3.319 and 3.3471
same,WST-1 raw signal (Figure 5c),"HCT116 cells [2]; conc 1.95E-07, 125 mJ/cm2 UV",2.9662 and 3.2767
same,WST-1 raw signal (Figure 5c),"HCT116 cells [2]; conc 1.95E-07, no UV",3.3384 and 3.3351
same,WST-1 raw signal (Figure 5c),"HCT116 cells [2]; conc 3.91E-07, 5mJ/cm2 UV",3.2173 and 2.6279
same,WST-1 raw signal (Figure 5c),"HCT116 cells [2]; conc 3.91E-07, 125 mJ/cm2 UV",3.2982
same,WST-1 raw signal (Figure 5c),"HCT116 cells [2]; conc 3.91E-07, no UV",3.3319 and 2.4545
same,WST-1 raw signal (Figure 5c),"HCT116 cells [2]; conc 7.81E-07, 5mJ/cm2 UV",3.0666 and 2.7778
same,WST-1 raw signal (Figure 5c),"HCT116 cells [2]; conc 7.81E-07, 125 mJ/cm2 UV",3.2287 and 3.2519
same,WST-1 raw signal (Figure 5c),"HCT116 cells [2]; conc 7.81E-07, no UV",3.286 and 3.3592
same,WST-1 raw signal (Figure 5c),"HCT116 cells [2]; conc 9.77E-08, 5mJ/cm2 UV",3.3085 and 3.2577
same,WST-1 raw signal (Figure 5c),"HCT116 cells [2]; conc 9.77E-08, 125 mJ/cm2 UV",3.2825 and 3.2983
same,WST-1 raw signal (Figure 5c),"HCT116 cells [2]; conc 9.77E-08, no UV",3.2977 and 3.3288
same,potentiation of CPD formation by UVA,U2OS cells,not
same,ROS in the presence of UVA (ratio after/before UVA),HCT116 cells [3],not
same,DNA damage (γ-H2AX) in the presence of UVA,[4],not
